Source: ChEMBL document CHEMBL4196088, “Induction of cell killing and autophagy by amphiphilic pyrrolidine derivatives on human pancreatic cancer cells” (Eur J Med Chem, 2018)
Calls of active or inactive are those of the source. The rule behind the calls is not given here.

system: PANC-1; assay: Induction of apoptosis in human PANC1 cells assessed as accumulation at sub-G0/G1 phase at 10 uM after 48 hrs by propidium iodide staining based flow cytometry (reference value: 0.2 to 2.9%); type: functional; conditions: not given

| SMILES | Activity [%] |
| --- | --- |
| Cl.NCC(=O)N1CCC[C@H]1COCCCCCC/C=C/c1ccc(-c2ccccc2)cc1 | 6.1 |

system: not listed separately; assay: Induction of apoptosis in HPNE cells at 5 to 40 uM after 24 to 72 hrs by Annexin V/7-AAD staining based flow cytometry; type: cell-based; conditions: human

| SMILES | Activity |
| --- | --- |
| Cl.NCC(=O)N1CCC[C@H]1COCCCCCC/C=C/c1ccc(-c2ccccc2)cc1 | Toxic |

system: PANC-1; assay: Induction of apoptosis in human PANC1 cells assessed as accumulation at sub-G0/G1 phase at 20 uM after 72 hrs by propidium iodide staining based flow cytometry (reference value: 1.6 to 3.2%); type: functional; conditions: not given

| SMILES | Activity [%] |
| --- | --- |
| Cl.NCC(=O)N1CCC[C@H]1COCCCCCC/C=C/c1ccc(-c2ccccc2)cc1 | 24.7 |

system: PANC-1; assay: Induction of apoptosis in human PANC1 cells assessed as accumulation at sub-G0/G1 phase at 20 uM after 48 hrs by propidium iodide staining based flow cytometry (reference value: 0.2 to 2.9%); type: functional; conditions: not given

| SMILES | Activity [%] |
| --- | --- |
| Cl.NCC(=O)N1CCC[C@H]1COCCCCCC/C=C/c1ccc(-c2ccccc2)cc1 | 6.3 |

system: Fibroblast; assay: Induction of apoptosis in human primary fibroblasts at 5 to 40 uM after 24 to 72 hrs by Annexin V/7-AAD staining based flow cytometry; type: cell-based; conditions: not given

| SMILES | Activity |
| --- | --- |
| Cl.NCC(=O)N1CCC[C@H]1COCCCCCC/C=C/c1ccc(-c2ccccc2)cc1 | Toxic |

system: PANC-1; assay: Growth inhibition of human PANC1 cells after 72 hrs by XTT assay; type: functional, cell-based; conditions: PANC-1, 72 h

| SMILES | IC50 [µM] |
| --- | --- |
| Cl.NCC(=O)N1CCC[C@H]1COCCCCCC/C=C/c1ccc(-c2ccccc2)cc1 | 5.7 |

system: PK9; assay: Induction of apoptosis in human PK9 cells at 5 to 40 uM after 24 to 72 hrs by Annexin V/7-AAD staining based flow cytometry; type: functional, cell-based; conditions: not given

| SMILES | Activity |
| --- | --- |
| Cl.NCC(=O)N1CCC[C@H]1COCCCCCC/C=C/c1ccc(-c2ccccc2)cc1 | Active |

system: PANC-1; assay: Induction of apoptosis in human PANC1 cells assessed as accumulation at sub-G0/G1 phase at 10 uM after 24 hrs by propidium iodide staining based flow cytometry (reference value: 0.6 to 0.7%); type: functional; conditions: not given

| SMILES | Activity [%] |
| --- | --- |
| Cl.NCC(=O)N1CCC[C@H]1COCCCCCC/C=C/c1ccc(-c2ccccc2)cc1 | 0.9 |

system: BXPC-3; assay: Growth inhibition of human BxPC3 cells after 72 hrs by XTT assay; type: functional, cell-based; conditions: BXPC-3, 72 h

| SMILES | IC50 [µM] |
| --- | --- |
| Cl.NCC(=O)N1CCC[C@H]1COCCCCCC/C=C/c1ccc(-c2ccccc2)cc1 | 6 |

system: PANC-1; assay: Induction of apoptosis in human PANC1 cells assessed as accumulation at sub-G0/G1 phase at 20 uM after 24 hrs by propidium iodide staining based flow cytometry (reference value: 0.6 to 0.7%); type: functional; conditions: not given

| SMILES | Activity [%] |
| --- | --- |
| Cl.NCC(=O)N1CCC[C@H]1COCCCCCC/C=C/c1ccc(-c2ccccc2)cc1 | 1.5 |

system: PANC-1; assay: Induction of apoptosis in human PANC1 cells assessed as accumulation at sub-G0/G1 phase at 10 uM after 72 hrs by propidium iodide staining based flow cytometry (reference value: 1.6 to 3.2%); type: functional; conditions: not given

| SMILES | Activity [%] |
| --- | --- |
| Cl.NCC(=O)N1CCC[C@H]1COCCCCCC/C=C/c1ccc(-c2ccccc2)cc1 | 9.5 |
